Consider four compounds from paper PMC4697807, “Novel Zn^2+ Modulated GPR39 Receptor Agonists Do Not Drive Acute Insulin Secretion in Rodents” (PLoS ONE, 2015).

SMILES strings stand for the structures. Where two headings read alike, the source gives them in different places.

Format in all cases: cell-based
One experiment concerns the target T1, GPR39 (NIT-1 cells) (Mus musculus, UniProt Q5U431).
T1 construct: NIT-1 cells endogenously expressing GPR39; endogenous in cells; host or cells: NIT-1 (ATCC CRL-2055)
T1 sequence (Q5U431 1-456): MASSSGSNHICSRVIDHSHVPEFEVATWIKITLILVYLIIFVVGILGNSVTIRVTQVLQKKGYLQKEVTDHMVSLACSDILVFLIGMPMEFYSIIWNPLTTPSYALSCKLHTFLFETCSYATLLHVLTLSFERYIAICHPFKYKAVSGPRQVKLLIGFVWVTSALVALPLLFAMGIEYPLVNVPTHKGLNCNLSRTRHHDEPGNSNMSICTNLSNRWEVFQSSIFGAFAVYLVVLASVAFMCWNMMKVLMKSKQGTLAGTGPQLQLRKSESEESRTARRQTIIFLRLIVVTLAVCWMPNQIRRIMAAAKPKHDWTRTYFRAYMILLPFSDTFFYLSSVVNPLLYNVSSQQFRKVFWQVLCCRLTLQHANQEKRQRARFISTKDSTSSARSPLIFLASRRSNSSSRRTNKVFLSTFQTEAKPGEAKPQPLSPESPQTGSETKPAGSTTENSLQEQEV
The experiment in a line: IP1 assay in NIT-1 cells endogenously expressing GPR39. The note with it: for Emax: read-out: Emax relative to the 100% efficacy reference AZ1395. The source says: (§1) Full length human (AF034633), rat (DM091294) and mouse (BC085285) GPR39 (GeneArt–Life Technologies, Carlsbad, CA) were subcloned into the pIRESneo3 vector (Clontech, Mountain View, CA). The resulting expression vectors hGPR39-, rGPR39- and mGPR39-pIRESneo3 were transfected into HEK293s cells (ATCC CRL-1573) using Lipofectamine 2000 (Life Technologies). Individual clones were isolated using flow cytometry with a FACSVantage SE DIVA (Becton Dickinson, Franklin Lakes, NJ) and clones were chosen based on responses to Zn^2+ measured in a cAMP assay (see below). […] HEK293s-derived cell lines were cultured at 37°C, 10% CO2 and 95% humidity in DMEM supplemented with 10% FBS and 600 μg/ml Geneticin (Life Technologies). The mouse pancreas epithelial cell line NIT-1 (ATCC CRL-2055) with endogenous expression of GPR39 was cultured at 37°C, 5% CO2, and 95% humidity in Ham´s F12 (Life Technologies) supplemented with 10% FBS.
IP1 assays were performed using IP-One Tb kits (CisBio). IP1 production was detected by HTRF as described above. Buffers and reagents were according to manufacturers’ protocols except LiCl concentrations in stimulation buffer which were 50 mM in assays employing HEK293s-hGPR39 cells and 20 mM in assays using NIT-1 cells. For assays using HEK293s-hGPR39 cells, 12,500 cells per well were dispensed into small-volume 384-well plates (Greiner) and IP1 production was stimulated in the presence of compounds for 30 min at 37 °C in a total volume of 20 μl. For assays using NIT-1 cells, 25,000 cells per well were seeded into poly-D-lysine coated 384-well plates (Becton-Dickinson) and cultured in Ham´s F12 medium with 10% FBS. After 48 h, cells were washed with stimulation buffer and IP1 production stimulated in the presence of compounds for 45 min at 37 °C in a total volume of 60 μl.
(§2) Concentration response data were fitted with a four parameter logistic fit using Eq 1, y=A+((B−A)/1+((C/x)^D))) (1) where A is no activation, B is full activation, C is the EC50 and D is the Hill slope.

The target in the next experiment is T2, GPR39 (Homo sapiens, UniProt O43194).
T2 sequence (O43194 1-453): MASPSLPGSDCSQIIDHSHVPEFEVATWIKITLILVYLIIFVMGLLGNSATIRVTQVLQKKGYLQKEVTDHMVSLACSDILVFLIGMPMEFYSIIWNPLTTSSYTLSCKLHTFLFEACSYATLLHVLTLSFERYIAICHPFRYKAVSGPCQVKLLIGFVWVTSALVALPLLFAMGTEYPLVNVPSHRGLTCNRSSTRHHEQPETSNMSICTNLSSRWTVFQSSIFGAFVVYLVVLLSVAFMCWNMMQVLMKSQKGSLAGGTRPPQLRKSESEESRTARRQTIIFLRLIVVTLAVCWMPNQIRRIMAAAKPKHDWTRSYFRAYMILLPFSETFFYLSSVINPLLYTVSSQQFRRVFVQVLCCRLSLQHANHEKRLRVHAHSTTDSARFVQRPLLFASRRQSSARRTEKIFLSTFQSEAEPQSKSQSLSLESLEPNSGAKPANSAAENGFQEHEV
As to the kind of experiment: Dynamic mass redistribution (DMR) label-free assay, HEK293s-hGPR39 cells. Also on record: Full length human (AF034633), rat (DM091294) and mouse (BC085285) GPR39; expressed in transfected cells; host or cells: HEK293s (ATCC CRL-1573), pIRESneo3 vector, selected clones. The following applies: for Efficacy at 33 μM: AZ1395 100% reference.
Text: as §1
(§3) DMR assays were performed using an Epic instrument (Corning Inc., Corning, NY). 12,000 cells per well were cultured for 24 h in 384-well fibronectin-coated Epic biosensor plates (Corning). On the day of experiment, culture medium was removed and replaced with 30 μl buffer A (HBSS, HEPES 20 mM pH7.4, 1% DMSO, 0.01% BSA) using an EL406 (Bio-Tek). Plates were incubated at 26 °C for 1 h inside the Epic to allow for temperature equilibration. A baseline was read for 2 min, and then 15 μl compounds in buffer A were added using a CyBi-Well vario (CyBio) and DMR was detected during 45 min.
as §2

The target in another experiment is T3, rGPR39 (Rattus norvegicus, UniProt A0A8J8Y1V6).
T3 sequence (A0A8J8Y1V6 1-456): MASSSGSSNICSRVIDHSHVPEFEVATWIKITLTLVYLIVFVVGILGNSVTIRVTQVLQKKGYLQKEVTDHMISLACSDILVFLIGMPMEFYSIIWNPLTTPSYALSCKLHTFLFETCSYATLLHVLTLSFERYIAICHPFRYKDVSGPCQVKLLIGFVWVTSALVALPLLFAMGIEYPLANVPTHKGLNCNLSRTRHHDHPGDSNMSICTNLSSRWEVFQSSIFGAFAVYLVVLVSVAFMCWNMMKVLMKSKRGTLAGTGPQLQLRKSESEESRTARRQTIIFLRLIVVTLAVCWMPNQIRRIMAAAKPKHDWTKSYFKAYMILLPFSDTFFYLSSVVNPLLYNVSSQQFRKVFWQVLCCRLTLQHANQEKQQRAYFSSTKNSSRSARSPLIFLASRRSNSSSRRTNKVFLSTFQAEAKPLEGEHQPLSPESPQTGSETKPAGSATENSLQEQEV
As to the kind of experiment: DMR label-free assay, HEK293s cells transfected with rat GPR39.
Text: as §1, §3, §2

[1] abbreviates: absence (w/o) of Zn^2+, read-out: EC50.
The mark [2] stands for this setting: presence of 5 μM Zn^2+, read-out: EC50.
Setting [3] is: absence (w/o) of Zn^2+, read-out: pEC50 ± SD (converted).
[4] abbreviates: presence of 5 μM Zn^2+, read-out: pEC50 ± SD (converted).
The mark [5] stands for this setting: Zn^2+ by itself, read-out: EC50.

Consider `N#Cc1ccc(OCCn2ccnc2)c(OCCn2ccnc2)c1` [AZ1395, 3,4-bis-(2-imidazol-1-ylethoxy)-benzonitrile], for which the “Efficacy at 33 μM” value at GPR39 (NIT-1 cells) (absence (w/o) of Zn^2+) came to 0%; at GPR39 (NIT-1 cells) (presence of 5 μM Zn^2+), 100%. In addition, the EC50 was more than 33000 nM at GPR39 (NIT-1 cells) (setting [1]); more than 33000 nM at GPR39 (NIT-1 cells) (setting [2]); 2290 nM at GPR39 (setting [3]); 36 nM at GPR39 (setting [2]); 35.5 nM on GPR39 (setting [4]); 5100 nM at rGPR39 (setting [1]). Besides, the EC50 on rGPR39 (setting [3]) was 5130 nM; on rGPR39 (setting [2]), 33 nM; on rGPR39 (setting [4]) it was 33.1 nM.
For the compound `Cc1nc2c(C(=O)O)cnn2c(O)c1Cc1ccc(Cl)cc1` [AZ4237, 6-[(4-chlorophenyl)methyl]-7-hydroxy-5-methyl-pyrazolo[1,5-a]pyrimidine-3-carboxylic acid], the results for the “Efficacy at 33 μM” value at GPR39 (NIT-1 cells) (absence (w/o) of Zn^2+) and at GPR39 (absence (w/o) of Zn^2+) were 8% and 20%, respectively. In addition, the EC50 on GPR39 (NIT-1 cells) (setting [1]) was more than 33000 nM; at GPR39 (NIT-1 cells) (setting [4]), 240 nM; on GPR39 (setting [1]), more than 33000 nM; on GPR39 (setting [4]), 191 nM; at rGPR39 (setting [1]), more than 33000 nM; at rGPR39 (setting [2]), 150 nM. In addition, at rGPR39 (setting [4]), the EC50 is 148 nM. The Emax on GPR39 (NIT-1 cells) (presence of 5 μM Zn^2+) was determined as 50%.
Regarding `Cc1nc(-c2nc3c(c(=O)[nH]2)CN(C(=O)c2cccc(Cl)c2F)CC3)cs1` [AZ7914, 6-(3-chloro-2-fluoro-benzoyl)-2-(2-methylthiazol-4-yl)-3,5,7,8-tetrahydropyrido-[4,3-d]pyrimidin-4-one], the “Efficacy at 33 μM” value on GPR39 (NIT-1 cells) (absence (w/o) of Zn^2+) was determined as 9%; on GPR39 (absence (w/o) of Zn^2+), 39%. Also, the EC50 is more than 33000 nM at GPR39 (NIT-1 cells) (setting [1]); 650 nM at GPR39 (NIT-1 cells) (setting [2]); more than 33000 nM on GPR39 (setting [1]); 102 nM at GPR39 (setting [4]); 7400 nM at rGPR39 (setting [1]); 150 nM at rGPR39 (setting [2]). At rGPR39 (setting [4]), the EC50 is 148 nM. Moreover, the maximum response (Emax) at GPR39 (NIT-1 cells) (presence of 5 μM Zn^2+) turned out to be 47%.
As to `[Zn+2]` [Zn^2+], on GPR39 (NIT-1 cells) (Zn^2+ by itself), the “Efficacy at 33 μM” value is given as 0% and the agonistic effects result is “no agonistic effects”. In addition, the EC50 at GPR39 (NIT-1 cells) (setting [5]) was more than 33000 nM. Also, on GPR39 (Zn^2+ by itself), the “Emax relative to the 100% efficacy reference AZ1395” value is approximately 35% and the “pEC50 ± SD” value is listed as “(4.87 ± 0.05)”. Also, the EC50 on GPR39 (setting [5]) was found to be 13000 nM.
